# Measured values reported in patent publication EP2057188B1 (priority 2006, dated 2008).
# Ends that are not written are not given here.
# What was measured:
# human GIP receptor [1] = details: read-out: GIP RBA; GIP receptor binding; RIN where stated; unit nM printed for these values
# human GIP receptor [2] = molecular target: T1, human GIP receptor (Homo sapiens, UniProt P48546); experiment: biochemical; details: read-out: %Inh 10nM
# [3] = Calcium lowering (GIP hybrids, Figure 23B); format: in vivo; details: summary of properties
# Experimental: (§1) In Figure 13B bars represent mean +/- sd. Peptide was injected IP at t = -5 minutes into 4-hour fasted NIH/Swiss female mice. Gavage (1.5g/kg) was given at t = 0. […] In Figure 17 points represent mean +/- sem. […] Samples were taken at t=60, t=120 and t=180.
# [4] = Gastric emptying (GIP hybrids, Figure 23A); format: in vivo; details: summary of properties
# Experimental: as §1
# [5] = Glucose in rats (summary table); format: in vivo; details: summary of properties
# [6] = format: in vivo, rats; details: 100 pmol/kg/min infusion dose in rats
# Experimental: As described, fed, isoflurane anesthetized HSD male rats were intubated and cannulated via femoral artery and vein and allowed to stabilize for 1 hour. […] At t=0, an i.v. bolus of 5.7mmol/kg D-glucose was administered over 2 minutes. Samples for glucose measurement and insulin concentrations were taken at various time points before and after (0 to 90 minutes) glucose infusion.
# [7] = molecular target: cardiomyocyte Gs- and Gi-coupled receptors; experiment: cAMP assay in neonatal cardiomyocytes; format: cell-based, rat
# Experimental: Activation of cardiomyocyte Gs- and Gi-coupled receptors was determined as a measure of cAMP production.
# Neonatal cardiomyocytes were isolated using a commercially available system. […] Sprague Dawley neonatal rats (1-2 days old) were decapitated and the beating heart dissected out into digestion buffer (Cellutron D1 buffer) to dissociate cells. […] The resuspended cells incubated in buffer (Cellutron D3 buffer) for sufficient time to allow optimal dispersion and minimize the need for pipetting to break up clumps. Cells released from the first 2 digestions were discarded since a significant portion of these is red blood cells. Resuspended cells were filtered and allowed to pre-plate for 1 hour on plastic in an incubator in NS media (Cellutron, NJ) in order to remove fibroblasts. After 1 hour of pre-plating, floating cells are removed and the flask rinsed with NS media. The floating cells and the cells in the rinse media were combined and counted. Residual red blood cells, which are smaller that the cardiac myocytes, were not counted.
# At Day 1, the NS media was replaced with fresh NS media.
# Dose response was determined.
# For Gs assays the positive control was 10uM forskolin and negative control was buffer. For Gi assays the positive control was buffer and the negative control was 10uM forskolin.
# [8] = format: in vivo, NIH/Swiss mice; details: summary of properties
# Experimental: In Figure 3A, bars represent mean ± sd, n=6-10. […] Gavage (1.5g/kg) was given at t=0. Sample was taken at t=30 min. […] In Figure 3B, points represent mean ± sem, n=8-15.
# as §1
# [9] = format: in vivo, C57BL/6 mice
# [10] = Circulatory system effects in conscious rats by telemetry; format: in vivo, Harlan Sprague Dawley rats
# [11] = Body composition in DIO mice; format: in vivo, C57BL/6J mice; details: summary of properties
# Text: An exemplary assay can be one that involves utilization of a diet-induced obese (DIO) mouse model for metabolic disease. […] During the study, the mice can continue to eat their high-fat diet. Water can be provided ad libitum throughout the study.
# DIO mice can be implanted with subcutaneous (SC) intrascapular osmotic pumps to deliver either vehicle (50% dimethylsulfoxide (DMSO) in water) or a compound of the invention. […] Body weights and food intake can be measured over regular intervals throughout the study periods. Respiratory quotient (RQ, defined as CO2 production ÷ O2 consumption) and metabolic rate can be determined using whole-animal indirect calorimetry (Oxymax, Columbus Instruments, Columbus, OH). The mice can be euthanized by isoflurane overdose, and an index of adiposity (bilateral epididymal fat pad weight) measured. Moreover, prior to determination of epididymal weight, body composition (lean mass, fat mass) for each mouse can be analyzed using a Dual Energy X-ray Absorptiometry (DEXA) instrument per manufacturer's instructions (Lunar Piximus, GE Imaging System).
# [12] = format: in vivo, db/db mice; details: Figure 4; GIP at a 10 fold higher dose
# Experimental: Peptide was injected IP at t=0 immediately following baseline sample into 2-hour fasted db/db mice.
# [13] = at doses of 100µg; cited from earlier work
# [14] = format: in vivo, NIH/Swiss mice; details: mice; summary of properties
# Experimental: Gavage (1.5g/kg) was given at t=0. Sample was taken at t=30 min.
# human GIP receptor [15] = molecular target: T1, human GIP receptor
# [16] = 80 nmol/kg, remote intravenous dosing
# T1 sequence (P48546 22-466 limits assumed): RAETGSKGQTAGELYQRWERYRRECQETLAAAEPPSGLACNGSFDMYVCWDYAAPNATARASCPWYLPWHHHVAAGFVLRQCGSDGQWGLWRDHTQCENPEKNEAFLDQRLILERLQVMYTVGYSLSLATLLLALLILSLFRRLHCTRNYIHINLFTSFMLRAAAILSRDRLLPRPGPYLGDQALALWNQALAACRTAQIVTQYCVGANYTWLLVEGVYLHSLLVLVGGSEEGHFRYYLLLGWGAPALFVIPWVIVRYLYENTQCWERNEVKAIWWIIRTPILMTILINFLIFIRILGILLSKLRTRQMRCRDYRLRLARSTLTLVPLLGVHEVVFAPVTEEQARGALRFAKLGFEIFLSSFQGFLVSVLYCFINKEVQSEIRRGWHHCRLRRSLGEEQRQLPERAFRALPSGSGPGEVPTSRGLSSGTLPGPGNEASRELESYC
molecule,measurement,setting,value
YSDGTFISDYSIAMDKlHQQDFVNWLLAQKPKKIRYS-NH2 [Compound 0601GIP4386],IC50,human GIP receptor [1],156 nM
CC[C@H](C)[C@H](NC(=O)[C@H](CO)NC(=O)[C@H](Cc1ccc(O)cc1)NC(=O)[C@H](CC(=O)O)NC(=O)[C@H](CO)NC(=O)[C@@H](NC(=O)[C@H](Cc1ccccc1)NC(=O)[C@@H](NC(=O)CNC(=O)[C@H](CC(=O)O)NC(=O)[C@H](C)NC(=O)[C@@H](N)Cc1ccc(O)cc1)[C@@H](C)O)[C@@H](C)CC)C(=O)N[C@@H](C)C(=O)N[C@@H](CCSC)C(=O)N[C@@H](CC(=O)O)C(=O)N[C@@H](CCCCN)C(=O)N[C@H](C(=O)N[C@@H](Cc1c[nH]cn1)C(=O)N[C@@H](CCC(N)=O)C(=O)N[C@@H](CCC(N)=O)C(=O)N[C@@H](CC(=O)O)C(=O)N[C@@H](Cc1ccccc1)C(=O)N[C@H](C(=O)N[C@@H](CC(N)=O)C(=O)N[C@@H](Cc1c[nH]c2ccccc12)C(=O)N[C@@H](CC(C)C)C(=O)N[C@@H](CC(C)C)C(=O)N[C@@H](C)C(=O)N[C@@H](CCC(N)=O)C(=O)N[C@@H](CCCCN)C(=O)N1CCC[C@H]1C(=O)N[C@@H](CCCCN)C(=O)N[C@@H](CCCCN)C(=O)N[C@H](C(=O)N[C@@H](CCCNC(=N)N)C(=O)N[C@@H](Cc1ccc(O)cc1)C(=O)N[C@@H](CO)C(N)=O)[C@@H](C)CC)C(C)C)[C@@H](C)CC [Compound 0601GIP4390],inhibition at 0.01 µM,human GIP receptor [2],90.3%
YAEGTFISDYSIAMDKIHQQDFVNWLLAQKGKKNDWKHNITQ-OH [GIP],acute food intake,"IP at t=0, consumed at t=30, 60, 120 min",did not acutely inhibit food intake
same,Food Intake,summary of properties,not active
same,iCa,[3],not active
same,Gastric Emptying,[4],not active
same,Glucose rats,[5],not active
same,insulin levels prior to the glucose challenge,[6],significant rise in insulin levels
same,insulinotropic response to an intravenous glucose challenge,[6],significant enhancement of the insulinotropic response
same,EC(50),"[7]; cAMP production, experiment of Figures 18A/18B",9.1 nM
same,EC(50),"[7]; cardiomyocyte Gs-coupled receptor activation, three independent experiments",15.6 nM
same,OGTT,[8],decreases
same,BWt (mDIO),"[9]; DIO mice, summary of properties",not active
same,body weight change in diet-induced-obese mice,"[9]; infused via osmotic pump for 2 weeks, high-fat diet",no effect on body weight change
same,dP/dt (inotropic effect),[10]; [16],positive inotropic effect
same,heart rate,[10]; [16],chronotropic (heart rate elevating) effect
same,mean arterial pressure,[10]; [16],no effect
same,Heart Rate (rat),"[10]; rat, summary of properties",increases
same,MAP. (rat),"[10]; rat, summary of properties",not active
same,Body Comp (mDIO),[11],No effect on lean mass
same,glucose lowering in a diabetic mouse model,[12],modest and wanes over time
same,inhibition of gastric emptying,[13],weakly active or inactive
same,Glucose mice,[14],weak
HGEGTLISDYSIAMDKIHQQDFVNWLLAQKPKKIRYS-NH2 [0601 GIP48 43],"(%Inh 10nm,GIP-LF Assay)",human GIP receptor [15],3(%Inh 10nM)
